Laboratory results as given in patent US6344474B1, “Use of central cannabinoid receptor antagonists for regulating appetence” (Sanofi-Synthelabo, priority 1997, dated 2002).

How the values were obtained:
[1] = system: Male Sprague-Dawley rats; assay: Effect of SR 141716 A on the intake of a sucrose solution in rats; assay type: in vivo, rat; details: for Consumption of sucrose solution in g, 1 hour / Consumption of sucrose solution in g, 2 hours / Consumption of sucrose solution in g, 3 hours / Consumption of sucrose solution in g, 4 hours: 5% sucrose solution; for Consumption of sucrose solution in g, 1 hour: T0+1 hour; for Consumption of sucrose solution in g, 2 hours: T0+2 hours; for Consumption of sucrose solution in g, 3 hours: T0+3 hours; for Consumption of sucrose solution in g, 4 hours: T0+4 hours
Experimental: TEST No. 1: Effect of SR 141716 A on the intake of a sucrose solution in rats
The experiment is performed according to W. C. Lynch et al., Physiol. Behav., 1993, 54, 877-880.
Male Sprague-Dawley rats weighing 190 to 210 g are under a normal light cycle (from 7 am to 7 pm) and receive water and food ad libitum.
For 6 days, between 11 am and 3 pm, the food and the water bottles are withdrawn and the rats are given a 5% sucrose solution to drink.
Rats drinking less than 3 g of sucrose solution are eliminated.
On the seventh day the test is carried out according to the following procedure:
9 am: withdrawal of food,
10 am: oral administration of SR 141716 A,
11 am=T0: introduction of bottles containing a weighed sucrose solution , T0+1 hour, T0+2 hours, T0+3 hours, T0+4 hours: measurement of the sucrose consumption by weighing of the bottles.

[2] = system: Male C 57 BL 6 mice; assay: Effect of SR 141716 A on the consumption of an alcohol solution in mice; assay type: in vivo, mouse; details: 6 hours; for Amount of alcohol consumed in g on D4: 10% alcohol solution
Experimental: TEST No. 2: Effect of SR 141716 A on the consumption of an alcohol solution in mice
Male C 57 BL 6 mice (Iffa-Credo) are isolated on the day of their arrival in an animal housing under a reverse cycle (night from 10 am to 10 pm) with 2 bottles filled with water. After 1 week, one of the bottles of water is replaced with a bottle filled with a 10% alcohol solution for 6 hours of the test. Each day, 30 minutes before the bottle of alcohol is introduced, the mice are treated subcutaneously with SR 141716 A. The amounts of alcohol and water consumed are measured after 6 hours. The test is repeated for 4 days.

With Cc1c(C(=O)NN2CCCCC2)nn(-c2ccc(Cl)cc2Cl)c1-c1ccc(Cl)cc1 [SR 141716 A, N-piperidino-5-(4-chlorophenyl)-1-(2,4-dichlorophenyl)-4-methylpyrazole-3-carboxamide] the “Consumption of sucrose solution in g, 1 hour” value (from here on “Consumption … 1 hour”) ([1]; 0.3 mg/kg po) was 5.18 g, the “Consumption of sucrose solution in g, 2 hours” value (“Consumption … 2 hours” for short) ([1]; 0.3 mg/kg po) was 9.18 g and the “Consumption of sucrose solution in g, 3 hours” value (from here on “Consumption … 3 hours”) ([1]; 0.3 mg/kg po) was 12.49 g. The “Consumption of sucrose solution in g, 4 hours” value (from here on “Consumption … 4 hours”) ([1]; 0.3 mg/kg po) was 16.10 g, the “Consumption … 1 hour” value ([1]; 1 mg/kg po) was 3.27 ± g and the “Consumption … 2 hours” value ([1]; 1 mg/kg po) was 3.61 ± g. For the same molecule, the “Consumption … 3 hours” value ([1]; 1 mg/kg po) was 5.65 ± g, the “Consumption … 4 hours” value ([1]; 1 mg/kg po) was 7.43 ± g and the “Consumption … 1 hour” value ([1]; 3 mg/kg po) was 2.95 ± g. The “Consumption … 2 hours” value ([1]; 3 mg/kg po) was 5.41 ± g, the “Consumption … 3 hours” value ([1]; 3 mg/kg po) was 6.96 ± g and the “Consumption … 4 hours” value ([1]; 3 mg/kg po) was 8.58 ± g. The “Dose at or above which consumption of aqueous sugar solution is very considerably reduced” value ([1]; oral administration) was ≥ 0.3 mg/kg, the “Amount of alcohol consumed in g on D4” value ([2]; 0.1 mg/kg sc) was 1.4 ± 0.2 g and the “Amount of water consumed” value ([2]; 0.1 mg/kg sc) was 1.1 ± 0.3 g. The “Amount of alcohol consumed in g on D4” value ([2]; 0.3 mg/kg sc) was 1.3 ± 0.2 g, the “Amount of water consumed” value ([2]; 0.3 mg/kg sc) was 1.1 ± 0.3 g and the “Amount of alcohol consumed in g on D4” value ([2]; 1 mg/kg sc) was 1.1 ± 0.2 g. For the same molecule, the “Amount of water consumed” value ([2]; 1 mg/kg sc) was 1.3 ± 0.1 g, the “Amount of alcohol consumed in g on D4” value ([2]; 3 mg/kg sc, 3 mg/kg) was 1.0 ± 0.2 g and the “Amount of water consumed” value ([2]; 3 mg/kg sc, 3 mg/kg) was 1.6 ± 0.3 g.
